Data set [1] has as its system ADJ/PC6 plasma cell tumour. As to the kind of experiment: ADJ/PC6 plasma cell tumour, inhibition of tumour weight. It counts as in vivo, mice. The conditions noted are these: i.p. dosing × 5; for ED90: Mus musculus, ADJ/PC6, ip, read-out: ID90 (the source's name); for Therapeutic Index: LD50 compared with ID90. From the text: (§1) The breadth of antitumour spectrum of the compounds of the invention in mice is illustrated by their activity in the ADJ/PC6 plasma cell tumour. This is a solid tumour sensitive to most alkylating agents. Good activity is rarely seen against this tumour and the R1 lymphoma.

In data set [2] the test system is R1 lymphoma. As to the kind of experiment: Activity against R1 lymphoma, increase in survival time (Table B, slightly different strain). The conditions noted are these: Mus musculus, ip, read-out: Medium % increase in survival time; for ILS at 33 mg/kg: 33 mg/kg i.p. daily day 3 to day 7. It counts as in vivo, mice. The procedure:
(§2) The R1 lymphoma is normally sensitive to anti-metabolites. Typically mice having a transplant of 1.5 × 10^6 tumour cells die from the metastisizing tumour on day 9, 10 or 11 after transplant.
(§3) The compounds illustrated below were dosed by the intra peritoneal route in a vehicle of 10% acetone in arachas oil daily from day 3 to day 7 after tumour transplant. The increase in survival time over control was measured.
(§4) The dose reported is that dose which gave the maximum increase in survival time. Lower doses gave less activity and higher doses are toxic.
(§5) The results are split into two sections (in Table A and Table B) because two slightly different strains of R1 lymphoma were used.

The test system of data set [3] is R1 lymphoma. As to the kind of experiment: Activity against R1 lymphoma, increase in survival time (Table A). It counts as in vivo, mice. The conditions noted are these: Mus musculus, ip, read-out: Medium % increase in survival time; for ILS at 32 mg/kg: 32 mg/kg i.p. daily day 3 to day 7. The protocol: as §2, §3, §4, §5
A short description of data set [4]: Dose at which 50% of the animals were killed (LD50). Also on record: species or system mice. The conditions noted are these: mouse, in vivo, ip; i.p. dosing × 5.
From the text: as §1

The test system of another data set is Proteus mirabilis. As to the kind of experiment: Antibacterial activity, MIC. It counts as cell-based. The conditions noted are these: DST agar + 5% lysed horse blood. The source says: (§6) Compounds of this invention have shown antibacterial activity. Thus the minimum inhibitory concentration (M.I.C.) of 4-carboxyethyl-5-(3,3-dimethyltriazeno)-2-phenylimidazole and the corresponding 2-methylimidazole in DST agar + 5% lysed horse blood are illustrated against the following bacteria.

Another data set deals with E. Coli. As to the kind of experiment: Antibacterial activity, MIC. It is filed as cell-based. The conditions noted are these: Escherichia coli; DST agar + 5% lysed horse blood.
From the text: as §6

Another data set has as its system Pseudomonas aeroginosa. As to the kind of experiment: Antibacterial activity, MIC. It counts as cell-based. The conditions noted are these: DST agar + 5% lysed horse blood.
From the text: as §6

The next data set deals with Staphylococus aureus. As to the kind of experiment: Antibacterial activity, MIC. It counts as cell-based. The conditions noted are these: DST agar + 5% lysed horse blood.
From the text: as §6

A further data set has as its system PC 6 tumour. As to the kind of experiment: PC 6 tumour screen. It counts as in vivo, mice.
From the text: as §1
The test of example 91 was repeated using the PC 6 tumour screen.

For data set [5] the following is noted: Skibba et al., Biochemical Pharmacology, 19, 2043 (1970); cited from earlier work.
For data set [6], the system named is Streptococus heamolyticus. As to the kind of experiment: Antibacterial activity, MIC. It counts as cell-based. The conditions noted are these: DST agar + 5% lysed horse blood.
From the text: as §6

The subject of a further data set is Candida neoformans. As to the kind of experiment: Antifungal activity, minimum inhibitory concentration. It counts as cell-based. From the text:
(§7) Antifungal activity has been found in compounds of this invention. Thus 4-carboxyethyl-5-(3,3-dimethyltriazeno)-2-phenylimidazole has the following minimum inhibitory concentrations.

Data set [7] deals with Trychopyton mentagrophytes. The data set is described as above. It counts as cell-based.
From the text: as §7

A further data set has as its system Candida albicans. The data set is described as above. It counts as cell-based.
From the text: as §7

Another data set has as its system Friend leukaemia virus. As to the kind of experiment: Friend Leukaemia, inhibition of splenomegally. It is filed as in vivo, mice. The conditions noted are these: sub-cutaneously 250 mg/kg/day on day -1, +1, +2 and +3 with respect to infection. From the text: Activity of these compounds has also been shown in Friend Leukaemia. Friend leukaemia virus is a prolonged infection in mice produced splenomegally.

[8] abbreviates: dose at which 90% inhibition of tumour weight occurs.
[9] abbreviates: Table B strain, dose of maximum increase.
The mark [10] stands for this setting: Table A strain, dose of maximum increase.

Converted amounts (≈) assume the structure as drawn.

With `CN(Cc1cnc2nc(N)nc(N)c2n1)c1ccc(C(=O)N[C@@H](CCC(=O)O)C(=O)O)cc1` [Methotrexate, 4-amino-10-methyl folic acid, reference compound], the ID90 entry in data set [1] (setting [8]) is reported as “Inactive”. Moreover, the ILS at 2 mg/kg with R1 lymphoma [2] was determined as 60%; in the data set on R1 lymphoma [3], 100%.

A word on the LD50: it is the dose at which mortality reaches 50%. Read a low LD50 as greater toxicity. Consider `CN(C)N=Nc1[nH]c(-c2ccccc2)nc1C(N)=O` [4-Carboxamido-5-(3,3-dimethyltriazeno)-2-phenylimidazole], for which the ED90 in data set [1] (setting [8]) worked out at 16 mg/kg. In addition, the “Therapeutic Index” value in data set [1] worked out at 15. For the same compound, the ILS at 50 mg/kg in the data set on R1 lymphoma [3] (Table A strain, 50 mg/kg i.p. daily day 3 to day 7, dose of maximum increase) came out at 80%. In addition, the LD50 in [4] stood at 240 mg/kg.

On to `CCOC(=O)c1nc(-c2ccc(F)cc2)[nH]c1N=NN(C)C` [4-Carbethoxy-5-(3,3-dimethyltriazeno)-2-(p-fluorophenyl) imidazole], for which the ED90 in [1] (setting [8]) stood at 20 mg/kg. Moreover, in data set [1], the “Therapeutic Index” value is 10. The same compound registered an LD50 in data set [4] of 200 mg/kg.

Broadly, the MIC is the least concentration at which growth counts as inhibited. As to `CCOC(=O)c1nc(C)[nH]c1N=NN(C)C` [4-Carbethoxy-5-(3,3-dimethyltriazeno)-2-methylimidazole], the ILS at 32 mg/kg in the data set on R1 lymphoma [2] (Table B strain, 32 mg/kg i.p. daily day 3 to day 7, dose of maximum increase) came to 90%. Moreover, the MIC in the data set on Proteus mirabilis came to 15 µg/mL; in the data set on E. Coli, 15 µg/mL; in the data set with Pseudomonas aeroginosa it was 62 µg/mL; with Staphylococus aureus, 7.5 µg/mL. Besides, the “Therapeutic Index” value is given as 47 with PC 6 tumour (i.p. dosing) and 40 in the data set with PC 6 tumour (oral dosing).

For `CN(C)N=Nc1[nH]cnc1C(N)=O` [DIC, 4-Carboxamide-5-(3,3-dimethyltriazeno)imidazole, reference compound], the ILS at 33 mg/kg in the data set on R1 lymphoma [2] (setting [9]) came out at 60%. Besides, in the data set on R1 lymphoma [3] (setting [10]), the ILS at 32 mg/kg is 300%. The “Therapeutic Index” value in the data set on PC 6 tumour (i.p. dosing) was 33; in the data set on PC 6 tumour (oral dosing), 24. The degradation in man entry in data set [5] is listed as “degraded substantially to AIC”.

`CCOC(=O)c1nc(-c2ccccc2)[nH]c1N=NN(C)C` [4-Carbethoxy-5-(3,3-dimethyl-triazeno)-2-phenyl imidazole]: the ED90 in data set [1] (setting [8]) was 3.5 mg/kg. Also, the “Therapeutic Index” value in data set [1] came to 88; with PC 6 tumour (i.p. dosing) it was 27; with PC 6 tumour (oral dosing), 11. Further, the ILS at 33 mg/kg with R1 lymphoma [2] (setting [9]) was 65%. Besides, the ILS at 32 mg/kg in the data set on R1 lymphoma [3] (setting [10]) was 300%. Also, the MIC in data set [6] is 1 µg/mL; in the data set on Staphylococus aureus, 10 µg/mL; in the data set with Candida neoformans it was 10 to 50 µg/mL (≈ 34.8 to 174 µM); in [7], 10 µg/mL (≈ 34.8 µM); in the data set on Candida albicans it was 10 µg/mL (≈ 34.8 µM). In data set [4], this compound registered a median lethal dose (LD50) of 310 mg/kg. In the data set on Friend leukaemia virus, the “inhibition of the splenomegally” value is reported as “complete inhibition of the splenomegally”.

With `CCOC(=O)c1nc(C2CCCCC2)[nH]c1N=NN(C)C` [4-Carbethoxy-5-(3,3-dimethyltriazeno)-2-cyclohexyl imidazole], in the data set with R1 lymphoma [2] (Table B strain, 21 mg/kg i.p. daily day 3 to day 7, dose of maximum increase), the ILS at 21 mg/kg worked out at 85%.
